# Measurements reported in PMC2000878, “Module structure of interphotoreceptor retinoid-binding protein (IRBP) may provide bases for its complex role in the visual cycle – structure/function study of Xenopus IRBP” (BMC Biochemistry, 2007).
# Where two headings read alike, the source gives them in different places.
# Key:
# Xenopus IRBP Module 2 = target: T1, Xenopus IRBP Module 2 (Xenopus laevis, UniProt Q7SZI7); set-up: method as in Loew et al. Exp Eye Res. 2001, 73:257–264; details: ref Loew et al. Exp Eye Res. 2001, 73:257–264, cited from earlier work
# T1 construct: cDNAs corresponding to the full-length IRBP, module 1, and module 2 were expressed in pThioHis; modules 3 and 4 were expressed in pTrxFus; made in house; host or cells: E. coli Top10 (pThioHis)
# T1 sequence (Q7SZI7 319-617 limits assumed): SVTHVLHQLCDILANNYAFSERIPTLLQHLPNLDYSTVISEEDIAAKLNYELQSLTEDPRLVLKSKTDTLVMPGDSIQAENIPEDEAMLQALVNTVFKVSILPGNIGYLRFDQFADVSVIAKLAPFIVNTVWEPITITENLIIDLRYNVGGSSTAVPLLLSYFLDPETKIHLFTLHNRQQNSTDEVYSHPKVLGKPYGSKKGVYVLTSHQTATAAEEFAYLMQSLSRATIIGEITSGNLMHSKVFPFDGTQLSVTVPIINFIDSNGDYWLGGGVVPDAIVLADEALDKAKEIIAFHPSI
# Xenopus IRBP Module 1 = Xenopus IRBP Module 1 (Xenopus laevis, UniProt Q7SZI7); assay: Fluorometric titration (enhancement, quenching); assay type: binding; set-up: cDNAs corresponding to the full-length IRBP, module 1, and module 2 were expressed in pThioHis; modules 3 and 4 were expressed in pTrxFus; made in house; host or cells: E. coli Top10 (pThioHis)
# Excerpt: (§1) Enhancement of retinol fluorescence and quenching of the intrinsic protein fluorescence were used to monitor binding of all-trans retinol to the recombinant IRBPs. We previously derived an equation that is generally useful for describing such quantum yield changes that are consequent upon ligand binding. This equation has been previously applied to the analysis of binding by monitoring the enhancement of retinol fluorescence. In this case, where excitation is at 330 nm and emission is monitored at 480, the fluorescence enhancement (Fenh) depends on the total retinol concentration (Rt), the dissociation constant (Kd ^all-trans), the number of retinol-binding sites per protein molecule (N) and the total protein concentration (Pt).
# (§2) Assuming that there is a single type of noninteracting site on the protein, (Fenh) is expected to be linearly related to the concentration of bound retinol molecules. Fenh is given by the relation
# (§3) Fenh=C1+C2[Rtall−trans−(Rtall−trans+NPt+Kdall−trans)^2−4NPtRtall−trans] MathType@MTEF@5@5@+=feaafiart1ev1aaatCvAUfKttLearuWrP9MDH5MBPbIqV92AaeXatLxBI9gBaebbnrfifHhDYfgasaacH8akY=wiFfYdH8Gipec8Eeeu0xXdbba9frFj0=OqFfea0dXdd9vqai=hGuQ8kuc9pgc9s8qqaq=dirpe0xb9q8qiLsFr0=vr0=vr0dc8meaabaqaciaacaGaaeqabaqabeGadaaakeaacqWGgbGrdaWgaaWcbaGaemyzauMaemOBa4MaemiAaGgabeaakiabg2da9iabdoeadnaaBaaaleaacqaIXaqmaeqaaOGaey4kaSIaem4qam0aaSbaaSqaaiabikdaYaqabaGcdaWadaqaaiabdkfasnaaDaaaleaacqWG0baDaeaacqWGHbqycqWGSbaBcqWGSbaBcqGHsislcqWG0baDcqWGYbGCcqWGHbqycqWGUbGBcqWGZbWCaaGccqGHsisldaGcaaqaamaabmaabaGaemOuai1aa0baaSqaaiabdsha0bqaaiabdggaHjabdYgaSjabdYgaSjabgkHiTiabdsha0jabdkhaYjabdggaHjabd6gaUjabdohaZbaakiabgUcaRiabd6eaojabdcfaqnaaBaaaleaacqWG0baDaeqaaOGaey4kaSIaem4saS0aa0baaSqaaiabdsgaKbqaaiabdggaHjabdYgaSjabdYgaSjabgkHiTiabdsha0jabdkhaYjabdggaHjabd6gaUjabdohaZbaaaOGaayjkaiaawMcaamaaCaaaleqabaGaeGOmaidaaOGaeyOeI0IaeGinaqJaemOta4Kaemiuaa1aaSbaaSqaaiabdsha0bqabaGccqWGsbGudaqhaaWcbaGaemiDaqhabaGaemyyaeMaemiBaWMaemiBaWMaeyOeI0IaemiDaqNaemOCaiNaemyyaeMaemOBa4Maem4CamhaaaqabaaakiaawUfacaGLDbaaaaa@8490@
# (§4) The equation was fit to the data by nonlinear least-squares analysis. To follow the quenching of the protein's intrinsic fluorescence the excitation and emission wavelengths were set to 280 nm and 340 nm, respectively, while the protein was titrated with all-trans retinol. For the quenching studies the inner filter effect was accounted for by graphical correction as previously described. Fluorescence measurements were made using an SLM 8000TM C photon counting spectrofluorometer corrected for wavelength dependence of source energy and detector response.
# full-length Xenopus IRBP = target: T2, full-length Xenopus IRBP (Xenopus laevis, UniProt Q7SZI7); assay: Fluorometric titration (ligand fluorescence enhancement, protein quenching, energy transfer); assay type: binding
# T2 construct: We expressed the full-length IRBP as well as its individual modules as thioredoxin-fusion proteins using pTrxFus and pThioHis vectors; made in house; host or cells: E. coli Top10 (pThioHis)
# Excerpt: The binding parameters of retinoid-binding proteins including IRBP may be determined by fluorescence spectroscopy. The method utilizes changes in quantum yield occurring during ligand binding. Such changes are represented by enhancement of ligand fluorescence, quenching of intrinsic protein fluorescence, and transfer of energy from protein to bound ligand. Fluorescence enhancement occurs if the quantum yield of the ligand's fluorescence is higher in the hydrophobic environment of the ligand-binding domain compared to that outside of the domain.
# as §1, with “Enhancement of retinol fluorescence and quenching of the intrinsic protein fluorescence were used to monitor binding of all-trans retinol to the recombinant IRBPs.” left out, “[…],” for “where excitation is at 330 nm and emission is monitored at 480,”
# as §2, §3
# The equation was fit to the data by nonlinear least-squares analysis. […] For the quenching studies the inner filter effect was accounted for by graphical correction as previously described. Fluorescence measurements were made using an SLM 8000TM C photon counting spectrofluorometer corrected for wavelength dependence of source energy and detector response.
# Xenopus IRBP Module 4 = target: T3, Xenopus IRBP Module 4 (Xenopus laevis, UniProt Q7SZI7); assay: Fluorometric titration (enhancement, quenching); assay type: binding
# T3 construct: cDNAs corresponding to the full-length IRBP, module 1, and module 2 were expressed in pThioHis; modules 3 and 4 were expressed in pTrxFus; made in house; host or cells: E. coli GI724 / GI698 (pTrxFus)
# Excerpt: as §1, §2, §3, §4
# Xenopus IRBP Module 3 = target: T4, Xenopus IRBP Module 3 (Xenopus laevis, UniProt Q7SZI7); assay: Fluorometric titration (enhancement, quenching); assay type: binding
# T4 construct: cDNAs corresponding to the full-length IRBP, module 1, and module 2 were expressed in pThioHis; modules 3 and 4 were expressed in pTrxFus; made in house; host or cells: E. coli GI724 / GI698 (pTrxFus)
# Excerpt: as §1, §2, §3, §4
# [1] = 9-AS fluorescence enhancement, ex 360 nm, em 440 nm
# [2] = 9-AS fluorescence enhancement, ex 360 nm, em 440 nm, read-out: Kd, Enhancement
# [3] = quenching by 9-AS, ex 280 nm, em 340 nm
# [4] = quenching by 9-AS, ex 280 nm, em 340 nm, read-out: Kd, Quenching
# T4 sequence (Q7SZI7 616-922): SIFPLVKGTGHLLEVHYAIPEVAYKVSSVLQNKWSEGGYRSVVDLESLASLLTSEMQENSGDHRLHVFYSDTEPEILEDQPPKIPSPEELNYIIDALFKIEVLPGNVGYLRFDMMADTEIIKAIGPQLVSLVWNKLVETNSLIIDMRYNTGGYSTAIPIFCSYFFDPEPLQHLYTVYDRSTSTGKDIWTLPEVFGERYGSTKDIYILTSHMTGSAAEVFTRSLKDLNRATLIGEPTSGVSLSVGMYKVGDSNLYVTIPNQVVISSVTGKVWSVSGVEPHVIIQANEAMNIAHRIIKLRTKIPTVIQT
# Chain of Xenopus IRBP Module 1 (Q7SZI7 23-315): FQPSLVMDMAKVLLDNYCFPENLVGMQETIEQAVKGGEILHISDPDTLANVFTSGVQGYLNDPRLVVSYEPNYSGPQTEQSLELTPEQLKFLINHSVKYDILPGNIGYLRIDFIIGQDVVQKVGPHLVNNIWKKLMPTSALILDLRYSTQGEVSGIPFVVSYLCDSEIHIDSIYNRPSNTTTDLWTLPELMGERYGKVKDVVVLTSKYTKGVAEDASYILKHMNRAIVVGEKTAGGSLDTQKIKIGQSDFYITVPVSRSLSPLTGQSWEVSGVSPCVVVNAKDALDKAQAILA
# T2 sequence (Q7SZI7 23-1219): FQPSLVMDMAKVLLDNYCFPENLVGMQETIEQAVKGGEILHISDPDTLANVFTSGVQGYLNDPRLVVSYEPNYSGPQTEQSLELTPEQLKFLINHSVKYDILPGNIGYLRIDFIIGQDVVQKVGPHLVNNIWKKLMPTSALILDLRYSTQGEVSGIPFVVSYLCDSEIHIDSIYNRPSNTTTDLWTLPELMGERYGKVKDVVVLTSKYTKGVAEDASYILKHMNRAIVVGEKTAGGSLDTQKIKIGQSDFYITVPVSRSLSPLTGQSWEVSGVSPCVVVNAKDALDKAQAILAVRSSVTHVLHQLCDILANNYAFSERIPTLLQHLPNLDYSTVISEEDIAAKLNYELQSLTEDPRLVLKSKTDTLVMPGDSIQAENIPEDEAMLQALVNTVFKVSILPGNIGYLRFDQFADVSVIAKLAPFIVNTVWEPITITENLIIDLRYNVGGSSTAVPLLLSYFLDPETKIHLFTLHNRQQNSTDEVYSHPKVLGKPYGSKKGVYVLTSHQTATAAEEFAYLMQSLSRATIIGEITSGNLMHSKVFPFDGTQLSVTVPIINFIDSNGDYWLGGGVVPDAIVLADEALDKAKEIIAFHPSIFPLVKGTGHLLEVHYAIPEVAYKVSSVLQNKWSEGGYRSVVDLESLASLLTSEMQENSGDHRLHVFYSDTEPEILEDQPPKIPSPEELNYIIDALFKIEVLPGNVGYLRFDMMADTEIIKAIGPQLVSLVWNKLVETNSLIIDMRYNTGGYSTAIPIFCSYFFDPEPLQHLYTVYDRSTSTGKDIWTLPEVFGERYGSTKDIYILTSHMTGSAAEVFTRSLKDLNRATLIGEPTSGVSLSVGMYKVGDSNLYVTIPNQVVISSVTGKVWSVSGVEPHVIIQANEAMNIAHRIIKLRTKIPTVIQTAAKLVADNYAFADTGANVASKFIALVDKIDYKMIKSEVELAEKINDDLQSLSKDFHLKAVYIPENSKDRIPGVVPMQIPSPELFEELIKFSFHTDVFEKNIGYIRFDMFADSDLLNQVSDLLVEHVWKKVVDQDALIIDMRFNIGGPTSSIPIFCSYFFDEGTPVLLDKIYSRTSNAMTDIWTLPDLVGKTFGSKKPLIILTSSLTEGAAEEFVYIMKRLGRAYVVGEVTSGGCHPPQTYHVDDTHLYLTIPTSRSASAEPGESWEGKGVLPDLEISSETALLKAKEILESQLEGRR
# T3 sequence (Q7SZI7 923-1219): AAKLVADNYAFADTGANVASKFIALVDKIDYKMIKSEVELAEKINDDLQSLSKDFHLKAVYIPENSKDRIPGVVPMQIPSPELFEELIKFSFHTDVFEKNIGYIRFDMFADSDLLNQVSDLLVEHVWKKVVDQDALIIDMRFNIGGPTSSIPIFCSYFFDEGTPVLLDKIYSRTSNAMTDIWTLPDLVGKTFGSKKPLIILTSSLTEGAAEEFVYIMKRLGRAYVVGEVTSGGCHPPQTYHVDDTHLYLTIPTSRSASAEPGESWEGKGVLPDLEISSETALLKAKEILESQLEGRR
smiles,measurement,setting,value
"CCCCCCCCCC(CCCCCCCC(=O)O)OC(=O)c1c2ccccc2cc2ccccc12 (centres unmarked) [9-AS, 9-(9-anthroyloxy) stearic acid]","Binding sites (N), Enhancement",Xenopus IRBP Module 2; [1],1.49 ± 0.15
same,Kd,Xenopus IRBP Module 2; [2],0.25 ± 0.08 µM
same,"Binding sites (N), Quenching",Xenopus IRBP Module 2; [3],0.93 ± 0.06
same,Kd,Xenopus IRBP Module 2; [4],0.13 ± 0.02 µM
same,"Binding sites (N), Enhancement",Xenopus IRBP Module 1; [1],2.55 ± 0.24
same,Kd,Xenopus IRBP Module 1; [2],0.33 ± 0.15 µM
same,"Binding sites (N), Quenching",Xenopus IRBP Module 1; [3],0.97 ± 0.19
same,Kd,Xenopus IRBP Module 1; [4],0.42 ± 0.1 µM
same,"Binding sites (N), Enhancement",full-length Xenopus IRBP; [1],2.58 ± 0.17
same,Kd,full-length Xenopus IRBP; [2],0.28 ± 0.07 µM
same,"Binding sites (N), Quenching","full-length Xenopus IRBP; quenching of protein fluorescence by 9-AS, ex 280 nm, em 340 nm",0.18 ± 0.29
same,Kd,"full-length Xenopus IRBP; quenching of protein fluorescence by 9-AS, ex 280 nm, em 340 nm, read-out: Kd, Quenching",0.29 ± 0.11 µM
same,"Binding sites (N), Enhancement",Xenopus IRBP Module 4; [1],2.23 ± 0.09
same,Kd,Xenopus IRBP Module 4; [2],0.082 ± 0.037 µM
same,"Binding sites (N), Quenching",Xenopus IRBP Module 4; [3],0.30 ± 0.09
same,Kd,Xenopus IRBP Module 4; [4],0.16 ± 0.04 µM
same,"Binding sites (N), Enhancement",Xenopus IRBP Module 3; [1],2.76 ± 0.09
same,Kd,Xenopus IRBP Module 3; [2],0.16 ± 0.41 µM
same,"Binding sites (N), Quenching",Xenopus IRBP Module 3; [3],1.06 ± 0.07
same,Kd,Xenopus IRBP Module 3; [4],0.19 ± 0.03 µM
